Molecule `CCCN(CCC)C(=O)c1cc(C(=O)N[C@@H](Cc2ccccc2)[C@H](O)CNCc2cccc(OC)c2)cc(-c2ccc(OC)cc2)c1.Cl` displayed a melting point of 205 to 209 °C.

`CCCN(CCC)C(=O)c1cc(C(=O)N[C@@H](Cc2ccccc2)[C@H](O)CNCc2cccc(OC)c2)cc(-c2ccsc2)c1.Cl` showed a melting point of 199 to 201 °C.

`CCCN(CCC)C(=O)c1cc(C(=O)N[C@@H](Cc2ccccc2)[C@H](O)CNCc2cccc(OC)c2)cc(-c2ccccc2)c1.Cl` gave a melting point of 214 to 219 °C.

Molecule `CCCN(CCC)C(=O)c1cc(C(=O)N[C@@H](Cc2cc(F)cc(F)c2)[C@H](O)CNCc2cccc(OC)c2)cc(-c2ccccc2)c1.Cl` yielded a melting point of 230 to 233 °C.
